Reference: article PMC1764755, “Human antimicrobial peptide LL-37 is present in atherosclerotic plaques and induces death of vascular smooth muscle cells: a laboratory study” (BMC Cardiovascular Disorders, 2006)

Assays:
Format in all cases: cell-based
[1] = tested on: rat aorta smooth muscle cells; assay: Internucleosomal DNA fragmentation (Cell Death Detection ELISA); settings: 16 h, n = 7, P < 0.05
Method: (§1) Confluent rat or human aorta smooth muscle cells cultured on 24-well plates were incubated in serum free DMEM for 16 h in the absence (control) or presence of LL-37 (10 and 30 μg/ml). Internucleosomal DNA fragmentation was measured using a Cell Death Detection ELISA Kit (Roche Molecular Biochemicals) according to the manufacturer's instructions. In short, the cells were lysed in the culture wells and the DNA fragments in the lysate were bound to a microtiter plate coated with monoclonal anti-histone antibodies. The bound DNA fragments were then detected by peroxidase-conjugated monoclonal anti-DNA antibodies and 2,2'-azino-di- [3-ethylbenzthiazoline sulfonate]. Optical density was measured at 415 nm and is expressed as % of untreated controls.

[2] = tested on: human aortic smooth muscle cells; assay: as above; settings: LL-37 30 μg/ml, 16 h, n = 7, P < 0.05
Method: as §1

[3] = tested on: caspase-3 activity in rat aorta smooth muscle cells; assay: Caspase-3 activity (fluorometric immunosorbent enzyme assay, FIENA); settings: LL-37 30 μg/ml, 1, 3 and 7 h, corrected for intact cells, n = 6, P < 0.05
Method: Confluent rat aorta smooth muscle cells cultured on 24-well plates were incubated for 1, 3 or 7 h in serum free DMEM in the absence (control) or presence of LL-37 (10 or 30 μg/ml). The caspase-3 activity was measured by using a fluorometric immunosorbent enzyme assay (FIENA, Roche Molecular Biochemicals) according to the manufacturer's instructions. Briefly, the caspase-3 from cellular lysates was captured by immobilized monoclonal anti-caspase-3 antibodies followed by addition of a substrate that is cleaved by caspase-3 generating a fluorescent compound. Fluorescence was then measured at 400 nm excitation and 505 nm emission. […] The caspase-3 activity values were therefore corrected in order to correspond to the fraction of intact cells using the formula […]
Where VIC is the caspase-3 activity of intact cells, VC is the caspase-3 activity of the sample, VL is the LDH activity of the sample and VLT is the total LDH activity of lysed cells. The caspase-3 activity is expressed as % of untreated controls.

human neutrophils = assay: Flow cytometry, FITC-annexin V / propidium iodide; settings: LL-37 30 μg/ml, 30 and 120 minutes, not shown
Method: Human neutrophils were isolated from heparinized blood from healthy donors using the Polymorph isolation kit (Nycomed Pharma AS Diagnostics, Oslo, Norway). Following the manufacturer's instructions, whole blood was layered carefully on neutrophil isolation medium and centrifuged at 400 × g for 30 min at room temperature. After centrifugation the following fractions were apparent: mononuclear cells, neutrophils and erythrocyte pellet. The polymorphonuclear leukocytes layer was suspended in PBS, followed by 10 min centrifugation at 350 × g; residual erythrocytes were removed by hypotonic lysis. After two washes in PBS with centrifugation for 5 min at 250 × g, the pellet was suspended in Minimum essential medium (MEM) and neutrophils were counted using a hemocytometer. The concentration of cells was adjusted to 10^7 cells/ml.
Rat aorta smooth muscle cells were harvested from culture plates using trypsin/EDTA and washed in PBS once followed by a 2-h incubation in bicarbonate free MEM at 37°C using gentle end-over-end rotation. […] Fluorescence-activated cell sorter (FACS) analysis was performed immediately (Becton Dickinson FACS Calibur instrument). 10,000 cells/sample were counted, and results were evaluated by using the Cell Quest software (Becton Dickinson). […]

[4] = tested on: rat aorta smooth muscle cells; assay: Flow cytometry, FITC-annexin V / propidium iodide; settings: LL-37 30 μg/ml
Method: Rat aorta smooth muscle cells were harvested from culture plates using trypsin/EDTA and washed in PBS once followed by a 2-h incubation in bicarbonate free MEM at 37°C using gentle end-over-end rotation. […] Staining was performed for 20 min on ice with FITC-annexin V (30 μg/ml) and propidium iodide (30 μg/ml, BD Pharmingen, San Diego, CA, USA) in calcium-containing PBS. Fluorescence-activated cell sorter (FACS) analysis was performed immediately (Becton Dickinson FACS Calibur instrument). 10,000 cells/sample were counted, and results were evaluated by using the Cell Quest software (Becton Dickinson). The same protocol was used for staining of human neutrophils incubated with LL-37 (30 μg/ml) for 30 or 120 min.

[5] = tested on: rat aorta smooth muscle cells; assay: LDH release assay; settings: LL-37 30 μg/ml, 1, 3 and 7 h, n = 7, P < 0.05
Method: Confluent rat aorta smooth muscle cells cultured on 24-well plates were incubated for 1, 3, or 7 h in serum free DMEM in the absence (control) or presence of LL-37 (10 or 30 μg/ml). The lactate dehydrogenase (LDH) activity released into the medium was measured by using the in vitro toxicology assay kit (Tox-7, Sigma-Aldrich) according to the manufacturer's instructions. In short, the medium was centrifuged at 2000 × g for 4 min. The LDH in the supernatants converted a tetrazolium dye, which was measured spectrophotometrically at 490 nm. The LDH activity is expressed as % of total LDH activity of lysed cells.

[6] = tested on: rat aorta smooth muscle cells; assay: Microscopy of cultured cells (Nomarski, DAPI, FITC-annexin V); settings: for morphological changes: serum free DMEM
Method: Rat aorta smooth muscle cells were grown on methanol-cleansed coverslips in 6-well plates and incubated for 2 or 5 h in serum free DMEM with/without LL-37 (10 or 30 μg/ml) or camptothecin (5 μg/ml, Sigma-Aldrich). After culture, the coverslips were washed with ice-cold PBS containing 1 mM Ca^2+ and the cells were then stained at room temperature for 20 min with FITC-annexin V (20 μg/ml, Roche Molecular Biochemicals, Mannheim, Germany) and 4'6-diamino-2-phenyliondole dihydrochloride (DAPI) nucleic acid stain (100 nM, Molecular probes, Eugene, OR, USA). Thereafter, the cells were fixed with 1 % paraformaldehyde (Becton Dickinson, Bedford MA, U.S.A) in ice-cold PBS containing 1 mM Ca^2+. Fixation was initiated on ice for 15 min and continued at room temperature for 45 min. Cover slips were then mounted using ProLong AntiFade Reagent (Molecular Probes). Visual inspection and recording of images was performed using a Nikon Eclipse TE300 inverted fluorescence microscope equipped with a Hamamatsu C4742-95 cooled CCD camera, using a Plan Apochromat 60 × objective.

SMILES	DNA fragmentation compared to controls ([1]; LL-37 10 μg/ml)	DNA fragmentation compared to controls ([1]; LL-37 30 μg/ml)	DNA fragmentation compared to controls [2]	caspase-3 activity versus untreated controls [3]	staining with propidium iodide and FITC-annexin V (human neutrophils)	increase in the propidium iodide fluorescence signal of the necrotic cells [4]	increase in FITC-annexin V fluorescence ([4]; 10 to 180 minutes) [fold]	leftmost peak of FITC-annexin V fluorescence histogram ([4]; 10 minutes)	leftmost peak of FITC-annexin V fluorescence histogram ([4]; 180 minutes) [units]	increase in propidium iodide staining of the viable cells ([4]; within 10 minutes) [fold]	release of LDH into medium versus control [5]	morphological changes ([6]; LL-37 10 μg/ml, not shown)	FITC-annexin V binding of plasma membrane (microscopy) ([6]; LL-37 30 μg/ml, 2 or 5 h)	nuclear appearance (DAPI stain) ([6]; LL-37 30 μg/ml, 2 or 5 h)	morphological changes ([6]; LL-37 30 μg/ml, 2 or 5 h)	cellular changes compared with those induced by LL-37 (30 μg/ml) ([6]; camptothecin 5 μg/ml, not shown)
CC[C@H](C)[C@H](NC(=O)[C@H](CCCCN)NC(=O)[C@H](CCC(=O)O)NC(=O)[C@H](CCCCN)NC(=O)[C@H](CO)NC(=O)[C@H](CCCCN)NC(=O)[C@H](CCCNC(=N)N)NC(=O)[C@H](Cc1ccccc1)NC(=O)[C@H](Cc1ccccc1)NC(=O)[C@H](CC(=O)O)NC(=O)CNC(=O)[C@H](CC(C)C)NC(=O)[C@@H](N)CC(C)C)C(=O)NCC(=O)N[C@@H](CCCCN)C(=O)N[C@@H](CCC(=O)O)C(=O)N[C@@H](Cc1ccccc1)C(=O)N[C@@H](CCCCN)C(=O)N[C@@H](CCCNC(=N)N)C(=O)N[C@H](C(=O)N[C@H](C(=O)N[C@@H](CCC(N)=O)C(=O)N[C@@H](CCCNC(=N)N)C(=O)N[C@H](C(=O)N[C@@H](CCCCN)C(=O)N[C@@H](CC(=O)O)C(=O)N[C@@H](Cc1ccccc1)C(=O)N[C@@H](CC(C)C)C(=O)N[C@@H](CCCNC(=N)N)C(=O)N[C@@H](CC(N)=O)C(=O)N[C@@H](CC(C)C)C(=O)N[C@H](C(=O)N1CCC[C@H]1C(=O)N[C@@H](CCCNC(=N)N)C(=O)N[C@H](C(=O)N[C@@H](CCC(=O)O)C(=O)N[C@@H](CO)C(=O)O)[C@@H](C)O)C(C)C)[C@@H](C)CC)C(C)C)[C@@H](C)CC [LL-37]	statistically significant DNA fragmentation	statistically significant DNA fragmentation	statistically significant DNA fragmentation	significant increase	weak staining	about 1000 fold	15	about 2 fluorescence units	~30	10	significantly increased	only small and inconsistent morphological changes	bound FITC-annexin V	nuclei of most cells appeared smaller with fragmented chromatin	progressive cell shrinkage and a rough appearance of the cell membrane	–
CC[C@@]1(O)C(=O)OCc2c1cc1n(c2=O)Cc2cc3ccccc3nc2-1 [camptothecin]	–	–	–	–	–	–	–	–	–	–	–	–	–	–	–	similar
